Assay: Biodistribution of the mixture of three free tracers (not formulated as nano-emulsion), comparative
Type: in vivo
Conditions: FVB female mouse
Protocol: In the following examples, the radioactivity was counted with the TRiCarb Counter (Ref: Packard, Liquid Scintillation Analyzers; Models 2200CA).
Fluobeam 700 (Fluoptics) is the apparatus with which the whole of the organs from the biodistribution were analyzed in fluorescence as well as the one with which the biodistribution kinetics of the nano-emulsions were established in vivo. This imaging system allows viewing of the fluorescence in spectral bands from 700 to 850 nm for a 650 nm excitation. The apparatus consists of an electric case containing the laser of class 3B, its power supply and an optical head containing the CCD camera.
As a comparison, a mixture of three tracers ([3H]CHE, [14C]CO and DiD) (not formulated as a nano-emulsion) was injected in order to observe the distribution of the tracers in the absence of droplets being used as a distribution carrier.

[1] = 2 h after injection of free tracers (not nano-emulsion)
[2] = 6 h after injection of free tracers (not nano-emulsion)
[3] = 16 h after injection of free tracers (not nano-emulsion)
[4] = 24 h after injection of free tracers (not nano-emulsion)

In the case of `CCCCCCCCCCCCCCCCCCN1/C(=C/C=C/C=C/C2=[N+](CCCCCCCCCCCCCCCCCC)c3ccccc3C2(C)C)C(C)(C)c2ccccc21.[O-][Cl+3]([O-])([O-])[O-]` [DiD, l,r-dioctadécyl-3,3,3′,3′-tetramethylindodicarbocyanine (DiD) perchlorate], the “fluorescence intensity, Adrenal glands (MEAN)” value [1] is reported as 730.45 photons per pixel, reduced to, the “fluorescence intensity, Brain (MEAN)” value [1] is reported as 439.56 photons per pixel, reduced to and the “fluorescence intensity, Fat (MEAN)” value [1] is reported as 280.30 photons per pixel, reduced to. For the same compound, the “fluorescence intensity, Heart (MEAN)” value [1] was 487.37 photons per pixel, reduced to, the “fluorescence intensity, Intestine (MEAN)” value [1] was 451.58 photons per pixel, reduced to and the “fluorescence intensity, Kidney (MEAN)” value [1] was 862.35 photons per pixel, reduced to. For the same compound, the “fluorescence intensity, Liver (MEAN)” value [1] was 2477.20 photons per pixel, reduced to, the “fluorescence intensity, Lung (MEAN)” value [1] was 848.08 photons per pixel, reduced to and the “fluorescence intensity, Muscle (MEAN)” value [1] was 211.84 photons per pixel, reduced to. The “fluorescence intensity, Ovary (MEAN)” value [1] was 954.70 photons per pixel, reduced to, the “fluorescence intensity, Pancreas (MEAN)” value [1] was 466.58 photons per pixel, reduced to and the “fluorescence intensity, Salivary gland (MEAN)” value [1] was 399.58 photons per pixel, reduced to. For the same compound, the “fluorescence intensity, Spleen (MEAN)” value [1] was 1162.07 photons per pixel, reduced to, the “fluorescence intensity, Uterus (MEAN)” value [1] was 694.28 photons per pixel, reduced to and the “fluorescence intensity, Adrenal glands (MEAN)” value [2] was 208.14 photons per pixel, reduced to. For the same compound, the “fluorescence intensity, Brain (MEAN)” value [2] was 116.17 photons per pixel, reduced to, the “fluorescence intensity, Fat (MEAN)” value [2] was 234.61 photons per pixel, reduced to and the “fluorescence intensity, Heart (MEAN)” value [2] was 346.63 photons per pixel, reduced to. The “fluorescence intensity, Intestine (MEAN)” value [2] was 363.09 photons per pixel, reduced to, the “fluorescence intensity, Kidney (MEAN)” value [2] was 573.78 photons per pixel, reduced to and the “fluorescence intensity, Liver (MEAN)” value [2] was 2293.21 photons per pixel, reduced to. The “fluorescence intensity, Lung (MEAN)” value [2] was 433.52 photons per pixel, reduced to, the “fluorescence intensity, Muscle (MEAN)” value [2] was 108.34 photons per pixel, reduced to and the “fluorescence intensity, Ovary (MEAN)” value [2] was 250.27 photons per pixel, reduced to. The “fluorescence intensity, Pancreas (MEAN)” value [2] was 191.73 photons per pixel, reduced to, the “fluorescence intensity, Salivary gland (MEAN)” value [2] was 232.98 photons per pixel, reduced to and the “fluorescence intensity, Spleen (MEAN)” value [2] was 3224.12 photons per pixel, reduced to. For the same compound, the “fluorescence intensity, Uterus (MEAN)” value [2] was 506.03 photons per pixel, reduced to, the “fluorescence intensity, Adrenal gland (MEAN)” value [3] was 1683.36 photons per pixel, reduced to and the “fluorescence intensity, Brain (MEAN)” value [3] was −24.23 photons per pixel, reduced to. For the same compound, the “fluorescence intensity, Fat (MEAN)” value [3] was 295.69 photons per pixel, reduced to, the “fluorescence intensity, Heart (MEAN)” value [3] was 186.72 photons per pixel, reduced to and the “fluorescence intensity, Intestine (MEAN)” value [3] was 505.69 photons per pixel, reduced to. For the same compound, the “fluorescence intensity, Kidney (MEAN)” value [3] was 382.29 photons per pixel, reduced to, the “fluorescence intensity, Liver (MEAN)” value [3] was 2954.59 photons per pixel, reduced to and the “fluorescence intensity, Lung (MEAN)” value [3] was 370.94 photons per pixel, reduced to. The “fluorescence intensity, Muscle (MEAN)” value [3] was 93.88 photons per pixel, reduced to, the “fluorescence intensity, Ovary (MEAN)” value [3] was 729.53 photons per pixel, reduced to and the “fluorescence intensity, Pancreas (MEAN)” value [3] was 101.87 photons per pixel, reduced to. For the same compound, the “fluorescence intensity, Salivary gland (MEAN)” value [3] was 271.01 photons per pixel, reduced to, the “fluorescence intensity, Spleen (MEAN)” value [3] was 3403.29 photons per pixel, reduced to and the “fluorescence intensity, Uterus (MEAN)” value [3] was 665.40 photons per pixel, reduced to. For the same compound, the “fluorescence intensity, Adrenal gland (MEAN)” value [4] was 653.68 photons per pixel, reduced to, the “fluorescence intensity, Brain (MEAN)” value [4] was 57.68 photons per pixel, reduced to and the “fluorescence intensity, Fat (MEAN)” value [4] was 344.99 photons per pixel, reduced to. The “fluorescence intensity, Heart (MEAN)” value [4] was 285.67 photons per pixel, reduced to, the “fluorescence intensity, Intestine (MEAN)” value [4] was 354.94 photons per pixel, reduced to and the “fluorescence intensity, Kidney (MEAN)” value [4] was 397.90 photons per pixel, reduced to. For the same compound, the “fluorescence intensity, Liver (MEAN)” value [4] was 2663.45 photons per pixel, reduced to, the “fluorescence intensity, Lung (MEAN)” value [4] was 300.36 photons per pixel, reduced to and the “fluorescence intensity, Muscle (MEAN)” value [4] was 289.03 photons per pixel, reduced to. The “fluorescence intensity, Ovary (MEAN)” value [4] was 989.32 photons per pixel, reduced to, the “fluorescence intensity, Pancreas (MEAN)” value [4] was 158.45 photons per pixel, reduced to and the “fluorescence intensity, Salivary gland (MEAN)” value [4] was 187.28 photons per pixel, reduced to. The “fluorescence intensity, Spleen (MEAN)” value [4] was 3880.70 photons per pixel, reduced to, the “fluorescence intensity, Uterus (MEAN)” value [4] was 636.69 photons per pixel, reduced to and the “accumulation in the liver and the spleen, tracer DiD alone” value (Tables 2 to 5 (2 to 24 h), free tracer) was “Strong accumulation”.
For `CCCCCCCCCCCCCCCCO[C@H]1CC[C@@]2(C)C(=CC[C@H]3[C@@H]4CC[C@H]([C@H](C)CCCC(C)C)[C@@]4(C)CC[C@@H]32)C1` [[3H]CHE, cholesteryl hexadecylether], the “biodistribution, Adrenal glands (MEAN)” value [1] was 0.17 % of injected dose per gram of, the “biodistribution, Brain (MEAN)” value [1] was 0.00 % of injected dose per gram of and the “biodistribution, Fat (MEAN)” value [1] was 0.02 % of injected dose per gram of. The “biodistribution, Heart (MEAN)” value [1] was 0.08 % of injected dose per gram of, the “biodistribution, Intestine (MEAN)” value [1] was 0.03 % of injected dose per gram of and the “biodistribution, Kidney (MEAN)” value [1] was 0.09 % of injected dose per gram of. For the same compound, the “biodistribution, Liver (MEAN)” value [1] was 1.76 % of injected dose per gram of, the “biodistribution, Lung (MEAN)” value [1] was 29.10 % of injected dose per gram of and the “biodistribution, Muscle (MEAN)” value [1] was 0.04 % of injected dose per gram of. For the same compound, the “biodistribution, Ovary (MEAN)” value [1] was 0.04 % of injected dose per gram of, the “biodistribution, Pancreas (MEAN)” value [1] was 0.05 % of injected dose per gram of and the “biodistribution, Salivary gland (MEAN)” value [1] was 0.01 % of injected dose per gram of. For the same compound, the “biodistribution, Spleen (MEAN)” value [1] was 1.55 % of injected dose per gram of, the “biodistribution, Uterus (MEAN)” value [1] was 0.02 % of injected dose per gram of and the “biodistribution, Adrenal glands (MEAN)” value [2] was 0.36 % of injected dose per gram of. The “biodistribution, Brain (MEAN)” value [2] was 0.02 % of injected dose per gram of, the “biodistribution, Fat (MEAN)” value [2] was 0.05 % of injected dose per gram of and the “biodistribution, Heart (MEAN)” value [2] was 0.30 % of injected dose per gram of. For the same compound, the “biodistribution, Intestine (MEAN)” value [2] was 0.15 % of injected dose per gram of, the “biodistribution, Kidney (MEAN)” value [2] was 0.41 % of injected dose per gram of and the “biodistribution, Liver (MEAN)” value [2] was 3.23 % of injected dose per gram of. The “biodistribution, Lung (MEAN)” value [2] was 83.99 % of injected dose per gram of, the “biodistribution, Muscle (MEAN)” value [2] was 0.03 % of injected dose per gram of and the “biodistribution, Ovary (MEAN)” value [2] was 0.07 % of injected dose per gram of. For the same compound, the “biodistribution, Pancreas (MEAN)” value [2] was 0.09 % of injected dose per gram of, the “biodistribution, Salivary gland (MEAN)” value [2] was 0.09 % of injected dose per gram of and the “biodistribution, Uterus (MEAN)” value [2] was 0.04 % of injected dose per gram of. The “biodistribution, Adrenal gland (MEAN)” value [3] was 0.47 % of injected dose per gram of, the “biodistribution, Brain (MEAN)” value [3] was 0.02 % of injected dose per gram of and the “biodistribution, Fat (MEAN)” value [3] was 0.02 % of injected dose per gram of. For the same compound, the “biodistribution, Heart (MEAN)” value [3] was 0.35 % of injected dose per gram of, the “biodistribution, Intestine (MEAN)” value [3] was 0.13 % of injected dose per gram of and the “biodistribution, Kidney (MEAN)” value [3] was 0.53 % of injected dose per gram of. For the same compound, the “biodistribution, Liver (MEAN)” value [3] was 6.95 % of injected dose per gram of, the “biodistribution, Lung (MEAN)” value [3] was 124.35 % of injected dose per gram of and the “biodistribution, Muscle (MEAN)” value [3] was 0.05 % of injected dose per gram of. The “biodistribution, Ovary (MEAN)” value [3] was 0.19 % of injected dose per gram of, the “biodistribution, Pancreas (MEAN)” value [3] was 0.04 % of injected dose per gram of and the “biodistribution, Salivary gland (MEAN)” value [3] was 0.05 % of injected dose per gram of. For the same compound, the “biodistribution, Spleen (MEAN)” value [3] was 4.17 % of injected dose per gram of, the “biodistribution, Uterus (MEAN)” value [3] was 0.03 % of injected dose per gram of and the “biodistribution, Adrenal gland (MEAN)” value [4] was 0.31 % of injected dose per gram of. For the same compound, the “biodistribution, Brain (MEAN)” value [4] was 0.03 % of injected dose per gram of, the “biodistribution, Fat (MEAN)” value [4] was 1.42 % of injected dose per gram of and the “biodistribution, Heart (MEAN)” value [4] was 0.12 % of injected dose per gram of. For the same compound, the “biodistribution, Intestine (MEAN)” value [4] was 0.07 % of injected dose per gram of, the “biodistribution, Kidney (MEAN)” value [4] was 1.12 % of injected dose per gram of and the “biodistribution, Liver (MEAN)” value [4] was 1.12 % of injected dose per gram of. For the same compound, the “biodistribution, Lung (MEAN)” value [4] was 6.37 % of injected dose per gram of, the “biodistribution, Muscle (MEAN)” value [4] was 0.11 % of injected dose per gram of and the “biodistribution, Ovary (MEAN)” value [4] was 0.08 % of injected dose per gram of. For the same compound, the “biodistribution, Pancreas (MEAN)” value [4] was 0.03 % of injected dose per gram of, the “biodistribution, Salivary gland (MEAN)” value [4] was 0.14 % of injected dose per gram of and the “biodistribution, Spleen (MEAN)” value [4] was 10.63 % of injected dose per gram of. The “biodistribution, Uterus (MEAN)” value [4] was 0.34 % of injected dose per gram of and the “accumulation of the free radioactive tracers in the lungs” value (Tables 2 to 5 (2 to 24 h), free tracers) was “strong accumulation”.

Reference: patent publication US9707305B2, “Formulas for diagnosing and treating hormone-dependent cancers and cancers of the organs responsible for steroid hormone synthesis” (Commissariat à l'énergie atomique et aux énergies …, priority 2011, dated 2017)
